According to PMC7909954 (eLife, 2021):
Where “and” joins values, the source holds several entries; their conditions need not be identical. Equal values may be shown once. Read-outs that look alike come from different tables or passages of the source.

Assays:
mMOR [1] = molecular target: T1, mMOR (Mus musculus, UniProt P42866); assay: cell-based; conditions: for Emax: HEK-293T, read-out: Emax% G protein activation (BRET) mMOR
mDOR [2] = molecular target: T2, mDOR (Mus musculus, UniProt P32300); assay: cell-based; conditions: for EC50: EC50 G protein activation (BRET) mDOR; for Emax: HEK-293T, read-out: Emax% G protein activation (BRET) mDOR
MOR [3] = molecular target: T3, MOR (Homo sapiens, UniProt P35372)
MOR [4] = molecular target: T3, MOR; assay: cell-based; conditions: for Emax: HTLA, read-out: Emax% arrestin recruitment (Tango) hMOR
rKOR [5] = molecular target: T4, rKOR (Rattus norvegicus, UniProt P34975)
mMOR [6] = molecular target: T1, mMOR; assay: biochemical; conditions: for EC50: EC50 mMOR [35S]GTPγS, ± SEM; for Emax: read-out: Emax mMOR [35S]GTPγS
DOR [7] = molecular target: T5, DOR (Homo sapiens, UniProt P41143); assay: cell-based; conditions: for EC50: EC50 cAMP inhibition hDOR; for Emax: HEK-293T, read-out: Emax% cAMP inhibition hDOR
rKOR [8] = molecular target: T4, rKOR; assay: cell-based; conditions: HEK-293T, read-out: Emax% arrestin recruitment (BRET) rKOR
mKOR [9] = molecular target: T6, mKOR (Mus musculus, UniProt P33534); assay: biochemical; conditions: for EC50: EC50 mKOR [35S]GTPγS, ± SEM; for Emax: read-out: Emax mKOR [35S]GTPγS
mKOR [10] = molecular target: T6, mKOR; assay: biochemical
DOR [11] = molecular target: T5, DOR; assay: cell-based; conditions: for EC50: EC50 arrestin recruitment hDOR, Tango; for Emax: HTLA, read-out: Emax% arrestin recruitment hDOR
KOR [12] = molecular target: T7, KOR (Homo sapiens, UniProt P41145); conditions: for Bias factor (cAMP-Tango) hKOR: >1 G protein bias, <1 arrestin bias; for Bias factor (cAMP-Tango) hKOR / ΔlogRA Tango hKOR / ΔlogRA cAMP hKOR: vs U50,488h; for Log RA cAMP hKOR / LogRA Tango hKOR: transduction coefficient log(T/KA)
mMOR [13] = molecular target: T1, mMOR; assay: biochemical
mDOR [14] = molecular target: T2, mDOR; assay: cell-based
mDOR [15] = molecular target: T2, mDOR; assay: biochemical; conditions: read-out: Emax mDOR [35S]GTPγS
rKOR [16] = molecular target: T4, rKOR; assay: cell-based; conditions: for Emax: HEK-293T, read-out: Emax% G protein activation (BRET) rKOR
KOR [17] = molecular target: T7, KOR; assay: cell-based; conditions: for Emax: HTLA, read-out: Emax% arrestin recruitment (Tango) hKOR
KOR [18] = molecular target: T7, KOR; assay: cell-based; conditions: for Emax: HEK-293T, read-out: Emax% cAMP inhibition hKOR
MOR [19] = molecular target: T3, MOR; assay: cell-based; conditions: for Emax: HEK-293T, read-out: Emax% cAMP inhibition hMOR
MOR [20] = molecular target: T3, MOR; remark: listed apart in the source
[21] = EC50 G protein activation (BRET) mMOR
[22] = EC50 arrestin recruitment (Tango) hKOR

T6 sequence (P33534 whole entry): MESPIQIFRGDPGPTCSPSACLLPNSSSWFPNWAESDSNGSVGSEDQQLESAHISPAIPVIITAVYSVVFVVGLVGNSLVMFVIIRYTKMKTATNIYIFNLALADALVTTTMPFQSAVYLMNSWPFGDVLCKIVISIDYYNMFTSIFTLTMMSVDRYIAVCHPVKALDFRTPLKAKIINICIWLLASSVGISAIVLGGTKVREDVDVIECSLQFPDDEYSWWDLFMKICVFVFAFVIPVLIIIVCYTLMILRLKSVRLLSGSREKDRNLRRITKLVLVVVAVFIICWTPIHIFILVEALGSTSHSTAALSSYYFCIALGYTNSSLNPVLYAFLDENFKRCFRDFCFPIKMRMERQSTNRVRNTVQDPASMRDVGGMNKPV
T4 sequence (P34975 whole entry): as the sequence (P33534 whole entry) above, with D11E, S17A, S51P, A308V counted along it
T3 sequence (P35372 whole entry): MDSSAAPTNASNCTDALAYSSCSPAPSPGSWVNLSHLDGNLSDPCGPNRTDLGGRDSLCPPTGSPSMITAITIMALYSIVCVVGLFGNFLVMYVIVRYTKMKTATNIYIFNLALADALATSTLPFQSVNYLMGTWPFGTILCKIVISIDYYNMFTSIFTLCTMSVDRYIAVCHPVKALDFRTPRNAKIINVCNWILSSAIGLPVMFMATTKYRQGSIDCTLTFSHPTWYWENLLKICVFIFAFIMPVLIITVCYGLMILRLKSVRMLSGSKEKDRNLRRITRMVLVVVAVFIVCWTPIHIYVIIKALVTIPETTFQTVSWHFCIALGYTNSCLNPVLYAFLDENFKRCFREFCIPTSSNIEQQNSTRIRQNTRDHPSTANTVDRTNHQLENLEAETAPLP
T1 sequence (P42866 whole entry): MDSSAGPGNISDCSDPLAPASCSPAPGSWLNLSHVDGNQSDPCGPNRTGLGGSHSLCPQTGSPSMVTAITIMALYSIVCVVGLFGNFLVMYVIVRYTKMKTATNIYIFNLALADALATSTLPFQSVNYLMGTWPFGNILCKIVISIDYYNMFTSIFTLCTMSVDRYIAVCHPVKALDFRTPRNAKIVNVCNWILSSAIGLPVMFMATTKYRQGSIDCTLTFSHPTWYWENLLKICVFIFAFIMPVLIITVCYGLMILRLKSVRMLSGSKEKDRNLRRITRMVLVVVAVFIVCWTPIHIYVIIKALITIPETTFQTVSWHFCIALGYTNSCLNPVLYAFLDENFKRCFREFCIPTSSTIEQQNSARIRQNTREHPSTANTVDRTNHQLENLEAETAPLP
T5 sequence (P41143 whole entry): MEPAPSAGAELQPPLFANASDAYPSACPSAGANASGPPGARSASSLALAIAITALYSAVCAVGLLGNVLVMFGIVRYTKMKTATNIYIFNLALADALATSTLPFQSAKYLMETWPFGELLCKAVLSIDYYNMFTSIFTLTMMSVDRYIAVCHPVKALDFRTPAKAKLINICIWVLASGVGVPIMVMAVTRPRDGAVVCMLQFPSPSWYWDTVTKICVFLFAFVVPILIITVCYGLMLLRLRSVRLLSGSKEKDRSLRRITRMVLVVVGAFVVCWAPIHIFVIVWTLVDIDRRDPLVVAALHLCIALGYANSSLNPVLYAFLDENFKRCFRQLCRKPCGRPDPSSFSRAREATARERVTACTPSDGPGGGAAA
T7 sequence (P41145 whole entry): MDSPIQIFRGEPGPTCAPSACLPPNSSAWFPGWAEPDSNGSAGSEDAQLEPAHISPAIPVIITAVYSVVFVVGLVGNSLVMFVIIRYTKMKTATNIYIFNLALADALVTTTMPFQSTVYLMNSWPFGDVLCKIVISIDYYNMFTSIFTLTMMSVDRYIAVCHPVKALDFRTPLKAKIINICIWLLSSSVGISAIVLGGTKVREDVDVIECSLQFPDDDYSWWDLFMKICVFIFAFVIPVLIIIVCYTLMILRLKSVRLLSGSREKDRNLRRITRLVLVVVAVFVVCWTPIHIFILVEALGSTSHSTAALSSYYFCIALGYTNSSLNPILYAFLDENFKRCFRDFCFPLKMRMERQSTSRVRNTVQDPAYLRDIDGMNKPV
T2 sequence (P32300 whole entry): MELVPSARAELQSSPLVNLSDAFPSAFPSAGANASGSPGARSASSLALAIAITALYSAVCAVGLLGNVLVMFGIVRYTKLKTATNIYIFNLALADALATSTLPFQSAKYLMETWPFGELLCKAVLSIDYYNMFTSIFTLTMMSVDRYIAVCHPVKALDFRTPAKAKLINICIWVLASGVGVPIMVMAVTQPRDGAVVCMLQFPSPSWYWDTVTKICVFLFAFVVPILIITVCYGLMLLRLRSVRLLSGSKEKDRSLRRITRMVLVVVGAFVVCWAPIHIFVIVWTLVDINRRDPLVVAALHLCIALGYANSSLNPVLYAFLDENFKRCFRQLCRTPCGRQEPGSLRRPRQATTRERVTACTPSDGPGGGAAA

Compound `O=C(N[C@@H]1CC[C@@]2(O)C3Cc4ccc(O)cc4[C@@]2(CCN3CC2CC2)C1)c1cccc(I)c1` [MP1601, N-((4bR,6R,8aS)−11-(Cyclopropylmethyl)−3,8a-dihydroxy-6,7,8,8a,9,10-hexahydro-5H-9,4b-(epiminoethano)phenanthren-6-yl)−3-iodobenzamide] has an EC50 (mMOR [1]; [21]) of 2.2 nM, an Emax (mMOR [1]) of 49 ± 3% and an EC50 (mMOR [1]; pEC50 G protein activation (BRET) mMOR) of 2.51 nM. For the same compound, the EC50 (mDOR [2]) was 6.27 nM, the Emax (mDOR [2]) was 105 ± 6.7% and the “Bias factor (cAMP-Tango) hMOR” value (MOR [3]) was 4. The “Log RA cAMP hMOR” value (MOR [3]) was 9.84±0.002, the “LogRA Tango hMOR” value (MOR [3]) was 7.65±0.035 and the “ΔlogRA Tango hMOR” value (MOR [3]) was 0.87±0.036. The “ΔlogRA cAMP hMOR” value (MOR [3]) was 1.44±0.002, the “ΔΔlog RA (cAMP-Tango) hMOR” value (MOR [3]) was 0.57±0.036 and the EC50 (MOR [4]) was 4.02 nM. The Emax (MOR [4]) was 27 ± 2%, the “Log RA BRET-G rKOR” value (rKOR [5]) was 7.917±0.018 and the “LogRA BRET-Arr rKOR” value (rKOR [5]) was 7.113±0.052. For the same compound, the “ΔΔlog RA (BRETG-BRETArr) rKOR” value (rKOR [5]) was -0.006±0.057, the “ΔlogRA BRET-G rKOR” value (rKOR [5]; vs U50,488h) was 0.324±0.052 and the “ΔlogRA BRET-arr rKOR” value (rKOR [5]; vs U50,488h) was 0.33±0.052. It also gave an EC50 (mMOR [6]) of 0.5 ± 0.2 nM, an Emax (mMOR [6]) of 45 ± 4.6% and an EC50 (DOR [7]) of 2.76 nM. It also gave an Emax (DOR [7]) of 106 ± 2.3%, an Emax (rKOR [8]) of 37 ± 3% and an EC50 (mKOR [9]) of 3 ± 0.7 nM. For the same compound, the Emax (mKOR [9]) was 72 ± 4.5%, the Ki (mKOR [10]) was 2.13 ± 0.3 nM and the EC50 (DOR [11]) was 86.7 nM. For the same compound, the Emax (DOR [11]) was 203 ± 5.4%, the “ΔΔlog RA (cAMP-Tango) hKOR” value (KOR [12]) was -0.282±0.023 and the “Bias factor (cAMP-Tango) hKOR” value (KOR [12]) was 0.5 and 0.52. For the same compound, the “Log RA cAMP hKOR” value (KOR [12]) was 9.85±0.014, the “LogRA Tango hKOR” value (KOR [12]) was 8.51±0.009 and the “ΔlogRA Tango hKOR” value (KOR [12]) was 0.097±0.012. For the same compound, the “ΔlogRA cAMP hKOR” value (KOR [12]) was -0.19±0.020, the Ki (mMOR [13]) was 0.2 ± 0.01 nM and the EC50 (mDOR [14]; EC50 arrestin recruitment (BRET) mDOR) was 9 nM. For the same compound, the Emax (mDOR [14]; HEK-293T, read-out: Emax% arrestin recruitment (BRET) mDOR) was 16 ± 1.4%, the Emax (mDOR [15]) was 67 ± 3.9% and the Emax (rKOR [16]) was 75 ± 3%. It also gave an EC50 (KOR [17]; [22]) of 3.23 nM, an Emax (KOR [17]) of 107 ± 3% and an Emax (KOR [18]) of 109 ± 1%. For the same compound, the EC50 (KOR [18]; pEC50 cAMP inhibition hKOR, ± SEM) was 0.174 nM, the EC50 (MOR [19]; EC50 cAMP inhibition hMOR) was 0.1 nM and the Emax (MOR [19]) was 69 ± 1%. It also gave an EC50 (MOR [19]; pEC50 cAMP inhibition hMOR) of 0.102 nM.

`CO[C@@]12CC[C@@H](NC(=O)c3cccc(I)c3)C3Oc4c(O)ccc5c4[C@@]31CCN(CC1CC1)C2C5` (stereo partly drawn) [MP1305, N-((4aS,7R,12bS)−3-(Cyclopropylmethyl)−9-hydroxy-4a-methoxy-2,3,4,4a,5,6,7,7a-octahydro-1H-4,12-methanobenzofuro[3,2-e]isoquinolin-7-yl)−3-iodobenzamide] showed an EC50 (mMOR [1]; [21]) of 0.74 nM, an Emax (mMOR [1]) of 72 ± 2% and an EC50 (mDOR [2]) of 40.4 nM. For the same compound, the Emax (mDOR [2]) was 105 ± 5.9%, the “Bias factor (cAMP-Tango) hMOR” value (MOR [3]) was 11 and the “Log RA cAMP hMOR” value (MOR [3]) was 9.79±0.053. For the same compound, the “LogRA Tango hMOR” value (MOR [3]) was 6.89±0.048, the “ΔlogRA Tango hMOR” value (MOR [3]) was 0.109±0.049 and the “ΔlogRA cAMP hMOR” value (MOR [3]) was 1.17±0.076. For the same compound, the “ΔΔlog RA (cAMP-Tango) hMOR” value (MOR [3]) was 1.059±0.090, the EC50 (MOR [4]) was 16.4 nM and the Emax (MOR [4]) was 21 ± 3%. The EC50 (mMOR [6]) was 0.7 ± 0.1 nM, the Emax (mMOR [6]) was 81.2 ± 16% and the EC50 (DOR [7]) was 74.2 nM. It also gave an Emax (DOR [7]) of 71 ± 2.4%, an EC50 (mKOR [9]) of 7.4 ± 1.8 nM and an Emax (mKOR [9]) of 42.2 ± 5.3%. It also gave a Ki (mKOR [10]) of 2.5 ± 0.3 nM, an EC50 (DOR [11]) of 228 nM and an Emax (DOR [11]) of 89 ± 2.8%. For the same compound, the “ΔΔlog RA (cAMP-Tango) hKOR” value (KOR [12]) was 0.55±0.04, the “Bias factor (cAMP-Tango) hKOR” value (KOR [12]) was 4 and the “Log RA cAMP hKOR” value (KOR [12]) was 9.22±0.012. The “LogRA Tango hKOR” value (KOR [12]) was 7.17±0.025, the “ΔlogRA Tango hKOR” value (KOR [12]) was -1.341±0.036 and the “ΔlogRA cAMP hKOR” value (KOR [12]) was -0.79±0.017. It also gave a Ki (mMOR [13]) of 0.25 ± 0.02 nM, an Emax (mDOR [15]) of 22 ± 0.9% and an EC50 (rKOR [16]) of 5.04 nM. It also gave an Emax (rKOR [16]) of 35 ± 3%, an EC50 (KOR [17]; [22]) of 25.7 nM and an Emax (KOR [17]) of 75 ± 1%. It also gave an EC50 (KOR [18]; EC50 cAMP inhibition hKOR) of 0.72 nM, an Emax (KOR [18]) of 102 ± 1.2% and an EC50 (MOR [19]; EC50 cAMP inhibition hMOR) of 0.12 nM. The Emax (MOR [19]) was 69 ± 1.8%.

`NCc1ccc(C(=O)N[C@@H]2CC[C@H]3[C@H]4Cc5ccc(O)c6c5[C@@]3(CCN4CC3CC3)[C@H]2O6)cc1` [MP1209, 4-(Aminomethyl)-N-((4R,4aR,7R,7aR,12bS)−3-(cyclopropylmethyl)−9-hydroxy-2,3,4,4a,5,6,7,7a-octahydro-1H-4,12-methano[1]benzofuro[3,2-e]isoquinolin-7-yl)benzamide] was tested, and the “arrestin recruitment at hMOR (in words)” value (MOR [20]) was “null arrestin recruitment”, the “ΔΔlog RA (cAMP-Tango) hKOR” value (KOR [12]) was -0.238±0.32 and the “Log RA cAMP hKOR” value (KOR [12]) was 10.55±0.06. The “LogRA Tango hKOR” value (KOR [12]) was 8.735±0.220, the “ΔlogRA Tango hKOR” value (KOR [12]) was 0.368±0.31 and the “ΔlogRA cAMP hKOR” value (KOR [12]) was 0.13±0.084. For the same compound, the Emax (KOR [17]) was 67 ± 3%, the EC50 (KOR [17]; pEC50 arrestin recruitment (Tango) hKOR, ± SEM) was 0.372 nM and the EC50 (KOR [18]; EC50 cAMP inhibition hKOR) was 0.024 nM. The Emax (KOR [18]) was 100 ± 1.23%, the Emax (MOR [19]) was 98.5 ± 0.96% and the EC50 (MOR [19]; pEC50 cAMP inhibition hMOR) was 0.245 nM.
